# Legend:
# [1] = biological target: T1, human Nav1.7 R1599P (rpNav1.7) (Homo sapiens, UniProt Q15858, R1610P); test: Long-term inactivation of rpNav1.7; assay type: cell-based
# T1 construct: expressed in transfected cells; host or cells: HEK293 cells, transient transfection with pcDNA3.1 construct
# [2] = biological target: T1, human Nav1.7 R1599P (rpNav1.7); test: Inhibition of Navβ4 peptide-mediated rpNav1.7 INaR; assay type: cell-based; settings: 100 μM Navβ4 peptide + 1 mM FHF4A peptide, HEK293; n = 5
# human Nav1.8 = test: INaR, Nav1.8 co-expressed with FHF2B; assay type: cell-based
# Experimental: (§1) HEK293 cells and ND7/23 cells were grown under standard tissue culture conditions (5% CO2 and 37°C) in DMEM supplemented with 10% FBS, 1% penicillin and 1% streptomycin. Using Invitrogen Lipofectamine 2000, human Nav1.7 R1599P (rpNav1.7) and the mutant constructs were transiently co-transfected with Navβ1 and Navβ2 into HEK293 cells. The constructs human Nav1.8 and mutants were transiently co-transfected with FHF2B or FHF4A into ND7/23 cells. The lipofectamine-DNA mixture was added to the cell culture medium and left for 3 h after which the cells were washed with fresh medium. Cells with green fluorescent protein fluorescence were selected for whole-cell patch-clamp recordings 36–72 h after transfection.
# Whole-cell voltage-clamp recordings were performed at room temperature (~21°C) using an EPC-10 amplifier and the Pulse program (HEKA Electronics). Fire-polished electrodes (0.7–1.0 MΩ) were fabricated from 1.7 mm capillary glass using a P-97 puller (Sutter Instruments), and the tips were coated with sticky wax (KerrLab) to reduce electrode capacitance and enable increased series resistance compensation. The pipette solution contained (in mM) 140 CsF, 1.1 EGTA, 10 NaCl, and 10 HEPES, pH 7.3. The bathing solution was (in mM) 130 mM NaCl, 30 mM TEA chloride, 1 mM MgCl2, 3 mM KCl, 1 mM CaCl2, 10 mM HEPES, and 10 mM d-glucose, pH 7.3 (adjusted with NaOH). […] The offset potential was zeroed before contacting the cell. After establishing the whole-cell recording configuration, the resting potential was held at −120 or −100 mV for 5 min to allow adequate equilibration between the micropipette solution and the cell interior. Linear leak subtraction, based on resistance estimates from four to five hyperpolarizing pulses applied before the depolarizing test potential, was used for all voltage clamp recordings. Membrane currents were usually filtered at 5 kHz and sampled at 20 kHz. […] Voltage errors were minimized using 80–95% series resistance compensation, and the capacitance artifact was canceled using the computer-controlled circuitry of the patch clamp amplifier. […] The concentration-dependent curves were fitted to a hill equation: Y = Bottom + (Top-Bottom)/(1 + 10^((LogEC50-X)*HillSlope)).
# (§2) INaR: INaR was elicited by repolarizing voltage steps from +20 to −80 mV for 100 ms (or 200 ms) in −5 mV increments, following a 20-ms depolarizing potential of +30 mV. […] The relative INaR in Nav1.7 and Nav1.8 was calculated by normalizing to the peak transient current elicited at −10 or 0 mV.
# Nav1.8 F1710K = test: INaR, Nav1.8 mutant F1710K; assay type: cell-based, human; settings: 1 mM FHF4A peptide
# Experimental: as §1
# Whole-cell voltage-clamp recordings were performed at room temperature (~21°C) using an EPC-10 amplifier and the Pulse program (HEKA Electronics). […]
# as §2
# [3] = Nav1.8 + FHF2B, ND7/23, 1 mM FHF4A peptide
# T1 sequence (Q15858 1-1977 isoform Q15858-3 R1599P): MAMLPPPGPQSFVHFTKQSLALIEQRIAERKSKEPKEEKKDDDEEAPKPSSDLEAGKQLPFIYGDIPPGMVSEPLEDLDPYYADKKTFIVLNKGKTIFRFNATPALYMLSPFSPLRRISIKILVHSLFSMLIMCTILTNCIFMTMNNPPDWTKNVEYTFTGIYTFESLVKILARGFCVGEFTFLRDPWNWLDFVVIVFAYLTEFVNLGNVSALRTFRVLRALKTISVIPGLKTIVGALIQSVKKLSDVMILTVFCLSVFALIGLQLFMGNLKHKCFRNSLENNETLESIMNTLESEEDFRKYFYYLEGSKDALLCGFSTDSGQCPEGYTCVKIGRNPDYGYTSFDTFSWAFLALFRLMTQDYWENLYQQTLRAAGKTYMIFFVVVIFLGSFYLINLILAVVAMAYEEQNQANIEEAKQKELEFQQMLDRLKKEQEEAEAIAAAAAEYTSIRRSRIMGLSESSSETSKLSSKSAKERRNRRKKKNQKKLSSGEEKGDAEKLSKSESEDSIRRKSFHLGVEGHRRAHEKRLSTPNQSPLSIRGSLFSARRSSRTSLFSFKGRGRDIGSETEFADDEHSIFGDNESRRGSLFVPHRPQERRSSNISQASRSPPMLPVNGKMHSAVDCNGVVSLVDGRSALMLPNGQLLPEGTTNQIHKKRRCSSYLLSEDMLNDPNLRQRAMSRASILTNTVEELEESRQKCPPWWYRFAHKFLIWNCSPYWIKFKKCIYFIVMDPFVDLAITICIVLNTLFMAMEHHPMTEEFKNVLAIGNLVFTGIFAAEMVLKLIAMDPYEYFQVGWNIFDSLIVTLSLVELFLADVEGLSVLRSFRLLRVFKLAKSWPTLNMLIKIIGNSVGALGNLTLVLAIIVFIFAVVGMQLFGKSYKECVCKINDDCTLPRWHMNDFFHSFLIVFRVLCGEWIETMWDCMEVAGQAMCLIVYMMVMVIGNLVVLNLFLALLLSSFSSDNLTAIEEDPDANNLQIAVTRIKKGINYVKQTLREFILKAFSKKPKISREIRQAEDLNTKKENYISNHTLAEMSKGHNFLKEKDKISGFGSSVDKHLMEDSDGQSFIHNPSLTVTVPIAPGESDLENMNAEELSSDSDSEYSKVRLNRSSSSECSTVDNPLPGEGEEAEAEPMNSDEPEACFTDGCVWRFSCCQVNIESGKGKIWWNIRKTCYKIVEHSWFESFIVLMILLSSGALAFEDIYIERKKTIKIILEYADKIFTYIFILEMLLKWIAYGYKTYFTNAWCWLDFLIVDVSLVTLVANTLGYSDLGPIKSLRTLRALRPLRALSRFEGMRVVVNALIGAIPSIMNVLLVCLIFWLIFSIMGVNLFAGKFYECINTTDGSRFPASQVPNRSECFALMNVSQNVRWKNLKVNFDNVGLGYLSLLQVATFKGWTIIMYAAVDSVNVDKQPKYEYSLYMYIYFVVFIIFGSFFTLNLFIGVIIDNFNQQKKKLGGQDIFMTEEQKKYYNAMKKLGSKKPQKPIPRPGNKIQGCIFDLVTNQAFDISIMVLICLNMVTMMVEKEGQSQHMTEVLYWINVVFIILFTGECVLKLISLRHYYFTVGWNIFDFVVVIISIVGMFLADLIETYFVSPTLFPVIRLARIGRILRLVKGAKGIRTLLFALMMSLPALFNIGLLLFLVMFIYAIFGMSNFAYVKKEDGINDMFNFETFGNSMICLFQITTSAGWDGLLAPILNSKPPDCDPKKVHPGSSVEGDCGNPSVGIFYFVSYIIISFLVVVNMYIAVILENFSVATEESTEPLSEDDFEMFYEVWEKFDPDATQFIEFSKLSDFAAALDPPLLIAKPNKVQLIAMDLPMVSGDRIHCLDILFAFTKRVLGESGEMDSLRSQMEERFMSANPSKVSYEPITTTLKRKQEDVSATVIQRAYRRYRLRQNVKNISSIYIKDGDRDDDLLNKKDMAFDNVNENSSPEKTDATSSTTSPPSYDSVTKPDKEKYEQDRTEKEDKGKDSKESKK
# T1 sequence (Q07699 19-218 partner): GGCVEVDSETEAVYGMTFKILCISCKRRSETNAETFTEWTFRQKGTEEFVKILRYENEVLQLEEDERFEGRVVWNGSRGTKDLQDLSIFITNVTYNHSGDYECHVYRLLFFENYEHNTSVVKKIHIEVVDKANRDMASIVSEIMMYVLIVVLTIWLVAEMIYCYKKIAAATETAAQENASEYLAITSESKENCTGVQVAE
# T1 sequence (O60939 30-215 partner): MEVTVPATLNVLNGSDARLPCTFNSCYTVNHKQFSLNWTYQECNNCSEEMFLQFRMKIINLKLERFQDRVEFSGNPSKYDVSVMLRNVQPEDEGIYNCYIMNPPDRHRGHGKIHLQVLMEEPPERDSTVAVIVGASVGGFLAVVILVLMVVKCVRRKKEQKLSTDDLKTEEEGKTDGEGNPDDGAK
sequence,measurement,setting,value
"AAAIASGLIRQKRQAREQHW [FHF4A peptide, synthetic 20-residue peptide from FHF4A A2 – W21]",effect on long-term inactivation of rpNav1.7,"[1]; 1 mM FHF4A peptide, HEK293",evidently enhanced accumulation of long-term inactivation of rpNav1.7
same,fraction of the current elicited at the 6th pulse,"[1]; rpNav1.7, HEK293, 1 mM, six 16-ms pulses of −10 mV from −100 mV, 40-ms interpulse, scramble n = 6, FHF4A peptide n = 5, p < 0.0001",0.21 ± 0.03
same,inhibition of Navβ4 peptide-mediated rpNav1.7 INaR,[2],inhibited completely
same,"average FHF4A peptide mediated INaR amplitude (peak, −15 mV), Nav1.8","human Nav1.8; Nav1.8 + FHF2B, ND7/23, 500 nM TTX, 1 mM peptide intracellular, measured after 20 ms into repolarization, mean ± S.E., n = 9",4.8% ± 0.5%
same,potential at which INaR peaked,human Nav1.8; [3],−15 mV
same,range of voltages at which INaR observed,human Nav1.8; [3],−40 to +20 mV
same,saturation of effect on INaR,"human Nav1.8; concentration-dependent curve, 1 mM",did not saturate at 1 mM
same,"average INaR amplitude at −15 mV, F1710K","Nav1.8 F1710K; + FHF2B, ND7/23, n = 6, p < 0.0001 vs Nav1.8",0.5% ± 0.1%
same,decrease of INaR amplitude by F1710K,"Nav1.8 F1710K; −15 mV, vs Nav1.8",ninefold

# — PMC11480954, “Molecular determinants of resurgent sodium currents mediated by Navβ4 peptide and A-type FHFs” (Frontiers in Molecular Neuroscience, 2024)
